In paper PMC12670405, “Second-Generation AURKA-Targeting PROTACs: Structural Optimization toward in Vivo Degradation in Neuroblastoma” (Journal of Medicinal Chemistry, 2025):
Read-outs that look alike come from different tables or passages of the source.

Experiments:
NGP = test: IncuCyte live-cell imaging, antiproliferative effect; format: cell-based; settings: Homo sapiens, 72 h
From the text: Human neuroblastoma cell lines NGP, IMR-32, SJNB-8, SK-N-BE(2)-C, SJNB-1, SK-N-SH and SK-N-AS, as well as benign immortalized cell lines RPE and HEK293T were either bought commercially or obtained through research laboratories. […] Screening for mycoplasma contamination occurred routinely on the cells. Human neuroblastoma cell lines SH-SY5Y_shABCB1 & SH-SY5Y_shNTC were generated by transduction with pLKO.1-ABCB1_TRCN0000059683 shRNA (Sigma MISSION SHCLND) or pLKO.1-puro NT shRNA (Sigma MISSION SHC002) vectors respectively (Supplementary Table S6), packaged using Lenti-X293T (Clontech). Transduced cells were selected with 2 μg/mL puromycin. These cells were cultured in DMEM 4.5 g/L D-Glucose, L-Glutamine and 110 mg/L Sodium Pyruvate (Gibco, #11995065) supplemented with 10% fetal bovine serum, 1× Antibiotic-Antimycotic solution (Sigma-Aldrich, #A5955) and 1× MEM nonessential amino acids (Sigma-Aldrich, #M7145). Incubation of all cells occurred at 37 °C and 5% CO2.
Neuroblastoma cells were seeded in 384-well plates at different densities ranging from 1200 to 5000 cells/well and allowed to adhere overnight. RPE and HEK293T were seeded at 200 and 600 cells/well, respectively. Compound treatment was performed using the D300e Digital Dispenser (Tecan) in duplicate or triplicate and cell confluency was monitored over time using the IncuCyte Live-cell imaging system (Sartorius). […] Mean normalized confluences were calculated from 3 individual experiments.
All dose–response curves were computed on GraphPad Prism using the Variable Slope (four parameters) equation. Absolute half-maximal degradation (DC50), growth inhibitory (GI50) and enzymatic inhibitory (IC50) concentrations, as well as inhibition constants (Ki) were derived from dose–response curves via interpolation. Statistical tests were performed on GraphPad Prism and detailed in the figure legends. Unless otherwise stated, “n” in the figure legends indicates the number of independent experiments conducted at different times.

AURKA = biological target: T1, AURKA (Homo sapiens, UniProt O14965); test: AURKA degradation, Simple Western; format: cell-based; set-up: Representative Western blot showing levels of endogenous proteins MDR1, MYCN, AURKA, and CRBN in untreated cell lines; endogenous in cells; host or cells: NGP, IMR-32, SJNB-8, SK-N-BE(2)-C, SK-N-SH, SK-N-AS, SJNB-1, RPE, HEK293T; settings: for pDC50: AURKA degradation; for DC50: read-out: AURKA DC50;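 for AURKA Degradation 24h @1000nM: measured in NGP neuroblastoma cells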;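 for AURKA Degradation 24h @100nM: measured in NGP neuroblastoma cells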
T1 sequence (O14965 1-403): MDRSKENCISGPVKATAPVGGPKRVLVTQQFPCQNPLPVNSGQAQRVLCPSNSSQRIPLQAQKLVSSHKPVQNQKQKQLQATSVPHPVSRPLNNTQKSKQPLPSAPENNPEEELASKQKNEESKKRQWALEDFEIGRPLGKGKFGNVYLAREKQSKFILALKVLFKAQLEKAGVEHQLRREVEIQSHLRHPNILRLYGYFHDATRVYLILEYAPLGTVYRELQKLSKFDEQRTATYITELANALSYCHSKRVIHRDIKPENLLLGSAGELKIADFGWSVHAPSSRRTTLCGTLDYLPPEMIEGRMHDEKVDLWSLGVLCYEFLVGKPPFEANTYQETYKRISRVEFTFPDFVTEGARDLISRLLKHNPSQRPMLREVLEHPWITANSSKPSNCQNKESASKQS
Method: Cells were seeded in T-25 flasks at different densities ranging from 1 to 2 million cells per flask and allowed to adhere for 1–2 days. In experiments involving compound treatment, this was done by medium replacement containing the compound(s) of interest in their corresponding concentrations. In competition binding experiments, cells were first pretreated with an excess of MK-5108, thalidomide or MG-132 for 1 h by shaking gently at room temperature prior to addition of SK4454 or SK5527. All samples were normalized to contain the same percentage of DMSO as the negative DMSO controls. Cells were harvested on ice at their respective time points by scraping, washed with ice-cold PBS to collect remaining cells, and centrifuged (2500 rpm, 4 °C). A second washing and centrifugation step was performed prior to collection of the final cell pellets which were then snap-frozen in liquid nitrogen and kept frozen at −80 °C until further processing. Lysis of cell pellets occurred in cold RIPA buffer (0.5% w/v Sodium Deoxycholate, 150 mM NaCl, 50 mM TrisHCl pH 7.5, 0.1% w/v SDS, 1% w/v NP-40) supplemented with protease and phosphatase inhibitors (Roche, #11836145001, #04906845001) by rotating gently at 4 °C for 1h, followed by a centrifugation step for 10 min (10,000 rpm, 4 °C). The supernatant was collected and concentrations of the obtained protein lysates were measured using the Pierce BCA Protein Assay Kit (Thermo Fisher Scientific, #23227).
Simple Western analyses were performed with the Wes instrument (Bio-Techne) using the 12–230 kDa Wes Separation module and the EZ standard pack reagent 1 (Biotechne, #SM-W001, #PS-ST01EZ-8) following the manufacturer’s protocol. Protein lysates were loaded at 0.8 μg/μL under denaturing conditions (0.2 μg/μL for MYCN detection). Chemiluminescence peaks were generated by the Compass Software (Bio-Techne) and the area under the peaks calculated using the Gaussian fit method. Per lane, quantified data were always normalized to that of the loading control (Vinculin) prior to calculating fold changes relative to the negative DMSO control. Mean fold changes are calculated from 3 individual experiments. A list of the primary and secondary antibodies used can be found in the Supporting Information (Supplementary Table S7).
Graphs were generated using GraphPad Prism Software (version 10.1.2) or RStudio (R-4.3.2). All dose–response curves were computed on GraphPad Prism using the Variable Slope (four parameters) equation. Absolute half-maximal degradation (DC50), growth inhibitory (GI50) and enzymatic inhibitory (IC50) concentrations, as well as inhibition constants (Ki) were derived from dose–response curves via interpolation. Statistical tests were performed on GraphPad Prism and detailed in the figure legends. Unless otherwise stated, “n” in the figure legends indicates the number of independent experiments conducted at different times.

| SMILES | GI50 (NGP; read-out: GI50 72h, 72h) [nM] | GI50 (NGP; read-out: pGI50 (converted)) [nM] | AURKA Degradation 24h @100nM (AURKA) | AURKA Degradation 24h @1000nM (AURKA) | pDC50 (AURKA) | DC50 (AURKA) [nM] | AURKA degradation activity (in words) (AURKA; NGP, 24 h treatment) | Dmax (AURKA; NGP, 24 h treatment) [%] |
| --- | --- | --- | --- | --- | --- | --- | --- | --- |
| O=C1CCC(N2C(=O)c3cccc(N4CCN(C(=O)COCCOCCNC(=O)[C@]5(Cc6cccc(Nc7nccs7)n6)CC[C@@H](Oc6cccc(Cl)c6F)CC5)CC4)c3C2=O)C(=O)N1 (stereo partly drawn) [PROTAC 2] | 72 | 72.4 | 70 | 81 | – | – | – | – |
| O=C1CCC(N2C(=O)c3ccc(N4CCN(C(=O)CNC(=O)[C@]5(Cc6cccc(Nc7nccs7)n6)CC[C@@H](Oc6cccc(Cl)c6F)CC5)CC4)cc3C2=O)C(=O)N1 (stereo partly drawn) [PROTAC 5] | 51 | 51.3 | 76 | 75 | – | – | – | – |
| O=C1CCC(N2C(=O)c3ccc(N4CCN(CCOCCNC(=O)[C@]5(Cc6cccc(Nc7nccs7)n6)CC[C@@H](Oc6cccc(Cl)c6F)CC5)CC4)cc3C2=O)C(=O)N1 (stereo partly drawn) [PROTAC 6] | 64 | 63.1 | 76 | 82 | – | – | – | – |
| O=C1CCC(N2C(=O)c3ccc(N4CCN(C(=O)COCCNC(=O)[C@]5(Cc6cccc(Nc7nccs7)n6)CC[C@@H](Oc6cccc(Cl)c6F)CC5)CC4)cc3C2=O)C(=O)N1 (stereo partly drawn) [PROTAC 7] | 112 | 112 | 68 | 77 | – | – | – | – |
| O=C1CCC(N2C(=O)c3ccc(N4CCN(CCOCCOCCNC(=O)[C@]5(Cc6cccc(Nc7nccs7)n6)CC[C@@H](Oc6cccc(Cl)c6F)CC5)CC4)cc3C2=O)C(=O)N1 (stereo partly drawn) [PROTAC 8] | 56 | 56.2 | 76 | 75 | – | – | – | – |
| O=C1CCC(N2C(=O)c3ccc(N4CCN(C(=O)COCCOCCNC(=O)[C@]5(Cc6cccc(Nc7nccs7)n6)CC[C@@H](Oc6cccc(Cl)c6F)CC5)CC4)cc3C2=O)C(=O)N1 (stereo partly drawn) [PROTAC 9] | 112 | 112 | 64 | 83 | – | – | – | – |
| O=C1CCC(N2C(=O)c3ccc(OCCN4CCN(C(=O)[C@]5(Cc6cccc(Nc7nccs7)n6)CC[C@@H](Oc6cccc(Cl)c6F)CC5)CC4)cc3C2=O)C(=O)N1 (stereo partly drawn) [PROTAC 10] | 52 | 52.5 | 72 | 80 | – | – | – | – |
| O=C1CCC(N2C(=O)c3ccc(OCCOCCN4CCN(C(=O)[C@]5(Cc6cccc(Nc7nccs7)n6)CC[C@@H](Oc6cccc(Cl)c6F)CC5)CC4)cc3C2=O)C(=O)N1 (stereo partly drawn) [PROTAC 11] | 38 | 38 | 78 | 80 | 8,31 | 4.9 | – | – |
| O=C1CCC(Nc2ccc(N3CCN(C(=O)[C@]4(Cc5cccc(Nc6nccs6)n5)CC[C@@H](Oc5cccc(Cl)c5F)CC4)CC3)cc2)C(=O)N1 (stereo partly drawn) [PROTAC 12] | 715 | 708 | 12 | < 0 | – | – | failed to reduce AURKA levels and instead led to its upregulation | – |
| O=C1CCC(Nc2ccc(N3CCN(CCNC(=O)[C@]4(Cc5cccc(Nc6nccs6)n5)CC[C@@H](Oc5cccc(Cl)c5F)CC4)CC3)cc2)C(=O)N1 (stereo partly drawn) [PROTAC 13] | 30 | 29.5 | 68 | 91 | 7,9 | 12.5 | – | – |
| O=C1CCC(Nc2ccc(N3CCN(C(=O)COCCNC(=O)[C@]4(Cc5cccc(Nc6nccs6)n5)CC[C@@H](Oc5cccc(Cl)c5F)CC4)CC3)cc2)C(=O)N1 (stereo partly drawn) [PROTAC 15] | 93 | 93.3 | 38 | 55 | – | – | only weak AURKA-degrading activity | – |
| O=C1CCC(Nc2ccc(N3CCN(C(=O)COCCOCCNC(=O)[C@]4(Cc5cccc(Nc6nccs6)n5)CC[C@@H](Oc5cccc(Cl)c5F)CC4)CC3)cc2)C(=O)N1 (stereo partly drawn) [PROTAC 16] | 78 | 77.6 | 39 | 75 | – | – | only weak AURKA-degrading activity | – |
| O=C1CCC(Nc2ccc(N3CCN(CC4CN(C(=O)[C@]5(Cc6cccc(Nc7nccs7)n6)CC[C@@H](Oc6cccc(Cl)c6F)CC5)C4)CC3)cc2)C(=O)N1 (stereo partly drawn) [PROTAC 17] | 39 | 38.9 | 59 | 88 | 7,29 | 51.1 | – | – |
| O=C1CCC(Nc2ccc(N3CCN(CC4CCN(C(=O)[C@]5(Cc6cccc(Nc7nccs7)n6)CC[C@@H](Oc6cccc(Cl)c6F)CC5)CC4)CC3)c(F)c2)C(=O)N1 (stereo partly drawn) [PROTAC 19] | 53 | 52.5 | 83 | 93 | – | – | – | – |
| O=C1CCN(c2ccc(N3CCN(C4CCN(C(=O)[C@]5(Cc6cccc(Nc7nccs7)n6)CC[C@@H](Oc6cccc(Cl)c6F)CC5)C4)CC3)nc2)C(=O)N1 (stereo partly drawn) [PROTAC 26] | 45 | 44.7 | 71 | 71 | 8,3 | 5 | – | – |
| Cc1cc(Nc2ccc(F)c(CC3(C(=O)N4CCC(CN5CCC(c6ccc(CN7CCC(=O)NC7=O)cn6)CC5)CC4)CCN(Cc4cccc(Cl)c4F)CC3)n2)n[nH]1 [PROTAC 30] | 158 | 158 | 42 | 59 | – | – | weak degradation potency | 59 |
| Cc1cc(Nc2ccc(F)c(CC3(C(=O)N4CC(CN5CCN(c6ccc(N7CCC(=O)NC7=O)cn6)CC5)C4)CCN(Cc4cccc(Cl)c4F)CC3)n2)n[nH]1 [PROTAC 31] | 98 | 97.7 | 80 | 89 | – | – | – | – |
